According to patent publication US11413296B2, “Viscous budesonide for the treatment of inflammatory diseases of the gastrointestinal tract” (The Regents of the University of California, priority 2005, dated 2022):
Like-named read-outs stand apart in the source and are kept apart here.

Test system: children with EE
Assay type: in vivo, human
Excerpt: Patient 1 was a person with a history of abdominal pain, failure to thrive, and vomiting since infancy, and developmental delay with isolated EE diagnosed in 2001. Their allergic history was significant for allergic rhinitis secondary to cat, dog, and dust mite exposure as well as positive Pharmacia CAP radioallergosorbent testing for fish and milk. […] They were referred to Children's Hospital Eosinophilic Gastrointestinal Disorders clinic for further management of EE recalcitrant to usual therapy. At the time of their referral, they continued to have vomiting and poor weight gain and their parent reported significant difficulty with the puff and swallow technique. They were placed on a regimen of twice daily oral budesonide suspension (Pulmicort®) 500 micrograms (4 ml) mixed with about 10 packets (1 gram each) sucralose (Splenda®), a non-absorbed sugar in order to increase fluid viscosity to be swallowed twice daily. The total volume of the preparation was about 7 to 8 ml. […] Eight am cortisol was 13.2 mcg/dL (normal range for age 3-15 mcg/dL) after four months of therapy.
Patient 2 was a child with a history of developmental delay, abdominal pain, and RAST positivity for milk, egg, and wheat. […] They were placed on a hydrolyzed formula containing milk protein (Peptamen Jr®), omeprazole 10 mg twice daily and oral cromolyn (Gastrocrom®) 100 mg four times daily. […] They were referred to the Children's Hospital Eosinophilic Gastrointestinal Disorders clinic for further management. […] After two months of elemental formula and oral cromolyn sodium, EGD was unchanged with a pale, furrowed esophagus and maximal eosinophil counts of 100, 90, and 70 per hpf in the distal, mid, and proximal esophagus with diffuse basal zone hyperplasia. Their developmental delay precluded the use of a fluticasone inhaler devise with puff and swallow technique. As an alternative, they received oral budesonide 500 micrograms (Pulmicort®) mixed with sucralose (Splenda®) twice daily as topical esophageal therapy.

[1] = Patient 2, elemental formula and oral cromolyn sodium, two months
[2] = Patient 2, hydrolyzed formula, omeprazole and oral cromolyn 100 mg four times daily, 12 months

CCCC1O[C@@H]2C[C@H]3[C@@H]4CCC5=CC(=O)C=C[C@]5(C)[C@H]4[C@@H](O)C[C@]3(C)[C@]2(C(=O)CO)O1 (stereo partly drawn) [budesonide, 16,17-(butylidenebis(oxy))-11,21-dihydroxy-, (11-β,16-α)-pregna-1,4-diene-3,20-dione]
maximum eosinophil count, proximal esophagus (Patient 2 (70 before), oral budesonide 500 micrograms mixed with sucralose twice daily, 3 months): 5 per hpf | maximum eosinophil count, mid esophagus (Patient 2 (90 before), oral budesonide 500 micrograms mixed with sucralose twice daily, 3 months): 20 per hpf | maximum eosinophil count, distal esophagus (Patient 2 (100 before), oral budesonide 500 micrograms (Pulmicort) mixed with sucralose twice daily, 3 months): 28 per hpf

O=C(O)c1cc(=O)c2c(OCC(O)COc3cccc4oc(C(=O)O)cc(=O)c34)cccc2o1 [cromolyn]
maximum eosinophil count, distal esophagus (Patient 2 (40 per hpf before), hydrolyzed formula (Peptamen Jr), omeprazole 10 mg twice daily and oral cromolyn 100 mg four times daily, 12 months): 94 per hpf | maximal eosinophil count, distal esophagus [1]: 100 per hpf | maximal eosinophil count, mid esophagus [1]: 90 per hpf | maximal eosinophil count, proximal esophagus [1]: 70 per hpf | maximum eosinophil count, mid esophagus [2]: 65 per hpf | maximum eosinophil count, proximal esophagus [2]: 90 per hpf

CCC(=O)O[C@]1(C(=O)SCF)[C@H](C)C[C@H]2[C@@H]3C[C@H](F)C4=CC(=O)C=C[C@]4(C)[C@@]3(F)[C@@H](O)C[C@@]21C [fluticasone]
maximal eosinophil count (Patient 1, elemental formula and fluticasone, accompanied by basal zone hyperplasia): 74 per hpf | maximum eosinophil count (Patient 1, omeprazole 10 mg twice daily and fluticasone 220 ug twice daily, after 6 months): 50 per hpf

C[C@]12C=CC(=O)C=C1CC[C@@H]1[C@@H]2C(=O)C[C@@]2(C)[C@H]1CC[C@]2(O)C(=O)CO [prednisone]
maximum eosinophils per hpf on repeat EGD with biopsy (Patient 1 (EE, 60 per hpf at diagnosis), oral prednisone 0.5 mg per kg daily for one month): 2 per hpf
